What is called IC50 is the concentration that inhibits the measured activity by half.

Data set [1] deals with recombinant human Cdk5/p25 (Homo sapiens, UniProt Q00535). Nature of the data set: Scintillation Proximity Assay (SPA), peptide substrate phosphorylation. In kind it is biochemical. The settings on record: recombinant human Cdk5/p25 3.3 nM, 2 μM ATP, biotinylated peptide substrate; read-out: IC50, inhibition of peptide substrate phosphorylation in SPA assay. The procedure:
(§1) The inhibition curves were analysed by non-linear regression using Graph Pad Prism.
This biochemical assay measures inhibition of the recombinant human Cdk5/p25 protein kinase by different compounds with a synthetic peptide as a substrate.
(In general: SPA uses beads or plates that emit light when radiolabelled molecules are held near them.)

For data set [2], the system named is Cdk5/p25 transfected HEK293 cells. Nature of the data set: NMHC-B (pSerCdk substrate) phosphorylation by Western blot in Cdk5/p25 transfected HEK293 cells. The settings on record: for IC50: Homo sapiens, 4 hours treatment, Western blot, read-out: IC50, inhibition of pSerCdk substrate (NMHC-B) phosphorylation. In kind it is cell-based, human. The procedure: as §1
(In general: Immunoblotting shows a protein as a band on a membrane.)

Data set [3] has as its system human neuroblastoma SH-SY5Y cells. Nature of the data set: pSerCdk substrate (NMHC-B) phosphorylation by Western blot in SH-SY5Y cells. Type of data set: cell-based. The settings on record: undifferentiated and RA-differentiated SH-SY5Y cells, 10 μM, 4 hours. The procedure:
SH-SY5Y cells were grown in medium with equal amount of Minimum Essential Medium (MEM, InVitrogen, Sweden) and Nutrient Mixture Ham's F-12 (InVitrogen, Sweden), supplemented with 1% non-essential amino acids and with heat-inactivated FCS. Cells were plated at a density of 4.0 × 10^4 cells/cm^2 in 6-well culture dishes using cell medium with 10% FCS. For differentiation, the cells were treated 6 days with 10 μM all-trans-retinoic acid (RA, Sigma, Sweden) in the medium containing 1% FCS. In some experiments the cells were left undifferentiated and these cells were cultured in medium containing 10% FCS. […]
HEK293 cells were lysed in buffer containing 10 mM Tris-HCl pH 7.2, 150 mM NaCl, 2 mM EDTA, 50 mM NaF, 1 mM Na3O4V, 0.5% NP-40 and 1 complete protease inhibitor cocktail tablet (Roche Diagnostics Scandinavia AB, Sweden)/10 ml buffer. […] The protein content in the supernatants was measured using BCA Protein Assay kit (Pierce Biotechnology, Rockford, IL, USA). […] Average density of the bands was measured in Fluor-S™MultiImager (Bio-Rad Laboratories AB, Sweden) by using Quantity One software. The inhibition curves were analysed by non-linear regression using Graph Pad Prism.
We also investigated NMHC-B phosphorylation by Cdk5 in human neuroblastoma SH-SY5Y cells. […] Verification that the 200 kDa pSerCdk band detected in SH-SY5Y cells was in fact NMHC-B was done by immunoprecipitation.

Data set [4] is described as follows: Solubility (remark in discussion). The settings on record: stated as likely cause of precipitation at higher concentrations. In kind it is physicochemical.

Chain of recombinant human Cdk5/p25 (Q00535 whole entry): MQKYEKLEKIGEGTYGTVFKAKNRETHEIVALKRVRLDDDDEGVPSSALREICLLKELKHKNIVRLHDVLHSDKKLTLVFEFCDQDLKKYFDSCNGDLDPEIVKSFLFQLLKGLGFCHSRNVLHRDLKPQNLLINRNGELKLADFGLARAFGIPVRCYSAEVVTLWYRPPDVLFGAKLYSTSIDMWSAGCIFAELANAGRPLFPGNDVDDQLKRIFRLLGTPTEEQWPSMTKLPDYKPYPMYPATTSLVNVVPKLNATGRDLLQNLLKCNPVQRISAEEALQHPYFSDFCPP
Chain of recombinant human Cdk5/p25 (Q15078 99-307 partner limits assumed): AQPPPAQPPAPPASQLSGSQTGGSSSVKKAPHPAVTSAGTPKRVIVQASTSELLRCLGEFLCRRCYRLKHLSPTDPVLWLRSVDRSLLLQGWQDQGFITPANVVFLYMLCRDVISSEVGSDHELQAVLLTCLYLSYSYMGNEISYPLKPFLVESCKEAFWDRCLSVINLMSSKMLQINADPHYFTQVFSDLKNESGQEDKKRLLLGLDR

For `CCn1c(=O)ccc2cnc(Nc3ccc(F)cc3)nc21` [WL compound, 7-ethyl-4-[(4-fluorophenyl)amino]-3,5,7-triaza bicyclo [4.4.0.] deca-1,3,5,9-tetraen-8-one], the results for the IC50 in data set [1] and in data set [2] were 45 nM and 2.55 µM, respectively.
In the case of `Cc1c(C(=O)c2ccc(Cl)cc2)cc(C(C)(C)C)c(O)c1C(=O)O` [5-(4-chlorobenzoyl)-2-hydroxy-6-methyl-3-tert-butyl-benzoic acid], the “inhibition of pSerCdk substrate phosphorylation” value in data set [2] (data not shown) is “did not show inhibition”.
As for `CC[C@H](CO)Nc1nc(NCc2ccccc2)c2ncn(C(C)C)c2n1` [Roscovitine], in data set [3], the “phosphorylation of 200 kDa pSerCdk substrate band” value is “completely inhibited”.
Consider `NS(=O)(=O)c1cc(-c2nc3ccc(Cl)cc3s2)cs1` [AZ compound, 4-(6-chlorobenzothiazol-2-yl)thiophene-2-sulfonamide], for which the IC50 in data set [1] came to 355 nM; in data set [2], 4.36 µM. The solubility result in data set [4] is reported as “poor solubility”.

Values taken from article PMC2703631, “Identification of non-muscle myosin heavy chain as a substrate for Cdk5 and tool for drug screening” (Journal of Biomedical Science, 2009).
